Results: the NIST ThermoML archive (doi:10.1021/je800110r)
Several values for one entry are separate records, joined by “and”; a condition that tells them apart may be missing. Equal values may be shown once.

Settings: 303.16 K, Liquid, Vibrating tube method

CCCCCCCCCC [decane]
Settings	mass density
4941 kPa	726.2 kg/m3
4955 kPa	726.3 kg/m3
4969 kPa	726.3 kg/m3
4979 kPa	726.4 kg/m3
4994 kPa	726.4 kg/m3
5007 kPa	726.3 kg/m3
5019 kPa	726.4 kg/m3
5029 kPa	726.4 kg/m3
5041 kPa	726.3 kg/m3
5052 kPa	726.3 kg/m3
5065 kPa	726.4 kg/m3
5075 kPa	726.5 kg/m3
5091 kPa	726.4 kg/m3
5107 kPa	726.5 kg/m3
5119 kPa	726.6 kg/m3
5129 kPa	726.5 kg/m3
5140 kPa	726.5 kg/m3
5153 kPa	726.4 kg/m3
5167 kPa	726.5 kg/m3
5177 kPa	726.4 kg/m3
5193 kPa	726.4 kg/m3
5209 kPa	726.4 kg/m3
5220 kPa	726.6 kg/m3
5236 kPa	726.5 kg/m3
5251 kPa	726.5 kg/m3
5261 kPa	726.5 kg/m3
5276 kPa	726.5 kg/m3
5292 kPa	726.5 kg/m3
5309 kPa	726.5 kg/m3
5318 kPa	726.4 kg/m3
5331 kPa	726.6 kg/m3
5342 kPa	726.7 kg/m3
5359 kPa	726.6 kg/m3
5374 kPa	726.6 kg/m3
5385 kPa	726.6 kg/m3
5399 kPa	726.5 kg/m3
5412 kPa	726.5 kg/m3
5427 kPa	726.7 kg/m3
5443 kPa	726.6 kg/m3
5459 kPa	726.7 kg/m3
5473 kPa	726.7 kg/m3
5488 kPa	726.8 kg/m3
5501 kPa	726.6 kg/m3
5514 kPa	726.8 kg/m3
5532 kPa	726.8 kg/m3
5548 kPa	726.7 kg/m3
5562 kPa	726.8 kg/m3
5576 kPa	726.8 kg/m3
5593 kPa	726.8 kg/m3
5607 kPa	726.8 kg/m3
5626 kPa	726.8 kg/m3
5642 kPa	726.8 kg/m3
5655 kPa	726.8 kg/m3
5674 kPa	726.9 kg/m3
5690 kPa	726.9 kg/m3
5705 kPa	726.8 kg/m3
5723 kPa	727 kg/m3
5738 kPa	726.9 kg/m3
5751 kPa	726.9 kg/m3
5770 kPa	727 kg/m3
5791 kPa	727 kg/m3
5803 kPa	726.9 kg/m3
5819 kPa	727 kg/m3
5834 kPa	726.9 kg/m3
5851 kPa	726.9 kg/m3
5864 kPa	727 kg/m3
5873 kPa	727 kg/m3
5878 kPa	727 kg/m3
5884 kPa	727 kg/m3
5887 kPa	727.1 kg/m3
5896 kPa	727.1 kg/m3
5908 kPa	727.1 kg/m3
5926 kPa	727.1 kg/m3
5940 kPa	727 kg/m3
5954 kPa	727 kg/m3
5971 kPa	727.1 kg/m3
5986 kPa	727.1 kg/m3
6008 kPa	727 kg/m3
6029 kPa	727.1 kg/m3
6044 kPa	727.2 kg/m3
6063 kPa	727 kg/m3
6080 kPa	727.3 kg/m3
6100 kPa	727.2 kg/m3
6118 kPa	727.1 kg/m3
6139 kPa	727.3 kg/m3
6161 kPa	727.3 kg/m3
6178 kPa	727.2 kg/m3
6196 kPa	727.2 kg/m3
6201 kPa	727 kg/m3
6204 kPa	727.3 kg/m3
6205 kPa	727.3 kg/m3
6209 kPa	727.3 kg/m3
6210 kPa	727.2 kg/m3
6211 kPa	727.3 kg/m3
6212 kPa	727.3 kg/m3
6213 kPa	727.3 kg/m3
6214 kPa	727.2 kg/m3
6215 kPa	727.3 kg/m3 and 727.2 kg/m3
6216 kPa	727.2 kg/m3 and 727.3 kg/m3 and 727.4 kg/m3
6222 kPa	727.3 kg/m3
6239 kPa	727.2 kg/m3
6255 kPa	727.3 kg/m3
6262 kPa	727.4 kg/m3
6278 kPa	727.2 kg/m3
6282 kPa	727.3 kg/m3
6283 kPa	727.3 kg/m3
6306 kPa	727.4 kg/m3
6327 kPa	727.3 kg/m3
6345 kPa	727.4 kg/m3
6368 kPa	727.4 kg/m3
6383 kPa	727.4 kg/m3
6399 kPa	727.5 kg/m3
6414 kPa	727.4 kg/m3
6427 kPa	727.5 kg/m3
6451 kPa	727.5 kg/m3
6470 kPa	727.5 kg/m3
6485 kPa	727.6 kg/m3
6507 kPa	727.4 kg/m3
6524 kPa	727.5 kg/m3
6545 kPa	727.6 kg/m3
6560 kPa	727.5 kg/m3
6580 kPa	727.5 kg/m3
6598 kPa	727.6 kg/m3
6621 kPa	727.7 kg/m3
6642 kPa	727.6 kg/m3
6661 kPa	727.7 kg/m3
6684 kPa	727.7 kg/m3
6705 kPa	727.6 kg/m3
6721 kPa	727.6 kg/m3
6735 kPa	727.7 kg/m3
6759 kPa	727.7 kg/m3
6783 kPa	727.8 kg/m3
6799 kPa	727.7 kg/m3
6818 kPa	727.8 kg/m3
6841 kPa	727.7 kg/m3
6864 kPa	727.8 kg/m3
6881 kPa	727.9 kg/m3
